Results reported in PubChem BioAssay AID1963421 (Molecular Pharmacology Branch, DTP, NCI, 2024).

Test system: 519858-162-T-J1-PDC complex spheroid growth, % test/control
Test: Anticancer human tumor 519858-162-T-J1-PDC patient-derived colon adenocarcinoma cell line growth inhibition [Asc]
Details: for IC50: curve of first compound; for viability, T/C: stronger effect = lower value
Outline: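 Complex solid-tumor spheroids incorporating human endothelial and mesenchymal stem cells received single agents or combinations over half-log dilution ranges anchored to clinical Cmax.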

[1] = second compound 0.0316 µM, first compound 0.0316 µM
[2] = second compound 0.0316 µM, first compound 0.1 µM
[3] = second compound 0.0316 µM, first compound 0.316 µM
[4] = second compound 0.0316 µM, first compound 1 µM
[5] = second compound 0.0316 µM, first compound 3.16 µM
[6] = second compound 0.0316 µM, first compound 10 µM
[7] = second compound 0.1 µM, first compound 0.0316 µM
[8] = second compound 0.1 µM, first compound 0.1 µM
[9] = second compound 0.1 µM, first compound 0.316 µM
[10] = second compound 0.1 µM, first compound 1 µM
[11] = second compound 0.1 µM, first compound 3.16 µM
[12] = second compound 0.1 µM, first compound 10 µM
[13] = second compound 0.316 µM, first compound 0.0316 µM
[14] = second compound 0.316 µM, first compound 0.1 µM
[15] = second compound 0.316 µM, first compound 0.316 µM
[16] = second compound 0.316 µM, first compound 1 µM
[17] = second compound 0.316 µM, first compound 3.16 µM
[18] = second compound 0.316 µM, first compound 10 µM
[19] = second compound 1 µM, first compound 0.0316 µM
[20] = second compound 1 µM, first compound 0.1 µM
[21] = second compound 1 µM, first compound 0.316 µM
[22] = second compound 1 µM, first compound 1 µM
[23] = second compound 1 µM, first compound 3.16 µM
[24] = second compound 1 µM, first compound 10 µM
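Also: seven day drug exposure begun three days after spheroid seeding.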
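For viability, T/C in this document: 100% = DMSO vehicle wells and lower values mean less viable spheroid.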

Q: `C=C(F)C(=O)N1CCN(c2nc(OCC3CCCN3C)nc3c2CCN(c2cccc4cccc(Cl)c24)C3)CC1CC#N` (centres undefined) + CNC(C)C(=O)NC1CN(S(=O)(=O)c2cccc(S(=O)(=O)N3CCC4CCC(C(=O)NC(c5ccccc5)c5ccccc5)N4C(=O)C(NC(=O)C(C)NC)C3)c2)CCC2CCC(C(=O)NC(c3ccccc3)c3ccccc3)N2C1=O was tested. Which IC50 (second compound 0.00316 µM) did it give?
A: > 10 µM

Q: What about the IC50 (second compound 0.01 µM) of the same molecule?
A: > 10 µM

Q: What about the IC50 (second compound 0.0316 µM) of the same molecule?
A: > 10 µM

Q: What about the IC50 (second compound 0.1 µM) of the same molecule?
A: > 10 µM

Q: What about the IC50 (second compound 0.316 µM) of the same molecule?
A: > 10 µM

Q: And the IC50 (second compound 1 µM)?
A: > 10 µM

Q: And the viability, T/C (second compound 0.00316 µM, first compound 0.0316 µM)?
A: 102%

Q: And the viability, T/C (second compound 0.00316 µM, first compound 0.1 µM)?
A: 86.8%

Q: And the viability, T/C (second compound 0.00316 µM, first compound 0.316 µM)?
A: 102%

Q: What about the viability, T/C (second compound 0.00316 µM, first compound 1 µM) of the same molecule?
A: 92.7%

Q: And the viability, T/C (second compound 0.00316 µM, first compound 3.16 µM)?
A: 94.8%

Q: What about the viability, T/C (second compound 0.00316 µM, first compound 10 µM) of the same molecule?
A: 113%

Q: What about the viability, T/C (second compound 0.01 µM, first compound 0.0316 µM) of the same molecule?
A: 104%

Q: And the viability, T/C (second compound 0.01 µM, first compound 0.1 µM)?
A: 83.7%

Q: And the viability, T/C (second compound 0.01 µM, first compound 0.316 µM)?
A: 91.2%

Q: What about the viability, T/C (second compound 0.01 µM, first compound 1 µM) of the same molecule?
A: 82%

Q: What about the viability, T/C (second compound 0.01 µM, first compound 3.16 µM) of the same molecule?
A: 96.7%

Q: And the viability, T/C (second compound 0.01 µM, first compound 10 µM)?
A: 108%

Q: And the viability, T/C [1]?
A: 94.7%

Q: And the viability, T/C [2]?
A: 83.7%

Q: And the viability, T/C [3]?
A: 86.3%

Q: What about the viability, T/C [4] of the same molecule?
A: 93.4%

Q: What about the viability, T/C [5] of the same molecule?
A: 95.7%

Q: And the viability, T/C [6]?
A: 107%

Q: What about the viability, T/C [7] of the same molecule?
A: 93.1%

Q: And the viability, T/C [8]?
A: 91.2%

Q: What about the viability, T/C [9] of the same molecule?
A: 93.3%

Q: What about the viability, T/C [10] of the same molecule?
A: 89.2%

Q: And the viability, T/C [11]?
A: 86.8%

Q: And the viability, T/C [12]?
A: 116%

Q: What about the viability, T/C [13] of the same molecule?
A: 88.2%

Q: What about the viability, T/C [14] of the same molecule?
A: 96.9%

Q: And the viability, T/C [15]?
A: 106%

Q: What about the viability, T/C [16] of the same molecule?
A: 92.9%

Q: What about the viability, T/C [17] of the same molecule?
A: 82.2%

Q: What about the viability, T/C [18] of the same molecule?
A: 107%

Q: What about the viability, T/C [19] of the same molecule?
A: 93.6%

Q: And the viability, T/C [20]?
A: 101%

Q: What about the viability, T/C [21] of the same molecule?
A: 103%

Q: What about the viability, T/C [22] of the same molecule?
A: 92.6%

Q: What about the viability, T/C [23] of the same molecule?
A: 91.2%

Q: And the viability, T/C [24]?
A: 112%

Q: Which results are given for `C=CC(=O)N1CCN(c2nc(=O)n(-c3c(C)ccnc3C(C)C)c3nc(-c4c(O)cccc4F)c(F)cc23)C(C)C1` (centres undefined) + Cc1c(S(C)(=O)=O)c(-c2cc(F)cc(N3CCN(c4ccc(NS(=O)(=O)c5ccc(NC(CCN6CCC(C(=O)OCCCP(=O)(O)O)CC6)CSc6ccccc6)c(S(=O)(=O)C(F)(F)F)c5)cc4)CC3)c2)c(-c2ccc(Cl)cc2)n1C(C)C?
A: IC50 (second compound 0.0316 µM): > 10 µM; IC50 (second compound 0.1 µM): > 10 µM; IC50 (second compound 0.316 µM): > 10 µM; IC50 (second compound 1 µM): > 10 µM; IC50 (second compound 3.16 µM): > 10 µM; IC50 (second compound 10 µM): 0.0316 µM; viability, T/C [1]: 93.5%; viability, T/C [2]: 97.2%; viability, T/C [3]: 83.9%; viability, T/C [4]: 79.4%; viability, T/C [5]: 83.8%; viability, T/C [6]: 70.9%; viability, T/C [7]: 84.2%; viability, T/C [8]: 84.3%; viability, T/C [9]: 82.5%; viability, T/C [10]: 89.5%; viability, T/C [11]: 87.7%; viability, T/C [12]: 77%; viability, T/C [13]: 89.7%; viability, T/C [14]: 86.6%; viability, T/C [15]: 76.2%; viability, T/C [16]: 75.5%; viability, T/C [17]: 68.7%; viability, T/C [18]: 66.1%; viability, T/C [19]: 62.6%; viability, T/C [20]: 58.5%; viability, T/C [21]: 72.4%; viability, T/C [22]: 69.5%; viability, T/C [23]: 87.9%; viability, T/C [24]: 73.6%; viability, T/C (second compound 3.16 µM, first compound 0.0316 µM): 72.8%; viability, T/C (second compound 3.16 µM, first compound 0.1 µM): 77.9%; viability, T/C (second compound 3.16 µM, first compound 0.316 µM): 64%; viability, T/C (second compound 3.16 µM, first compound 1 µM): 60.6%; viability, T/C (second compound 3.16 µM, first compound 3.16 µM): 56.3%; viability, T/C (second compound 3.16 µM, first compound 10 µM): 68.9%; viability, T/C (second compound 10 µM, first compound 0.0316 µM): 52.9%; viability, T/C (second compound 10 µM, first compound 0.1 µM): 53.7%; viability, T/C (second compound 10 µM, first compound 0.316 µM): 46.9%; viability, T/C (second compound 10 µM, first compound 1 µM): 55.3%; viability, T/C (second compound 10 µM, first compound 3.16 µM): 83.2%; viability, T/C (second compound 10 µM, first compound 10 µM): 63.7%
